Experiments:
[1] = Trial 2: plasma pharmacokinetics of single-dose furosemide and rosuvastatin; type: in vivo, healthy male and female subjects; details: single dose co-administered with oral semaglutide versus alone
[2] = cited from earlier work
CYP enzymes = details: in vitro studies; cited from earlier work
drug transporters = details: in vitro studies; cited from earlier work
[3] = co-administered with once-weekly subcutaneous semaglutide; cited from earlier work

With `NS(=O)(=O)c1cc(C(=O)O)c(NCc2ccco2)cc1Cl` [Furosemide, furosemide] the “decrease in the maximum concentration” value [1] was 34%.
In the case of `CC(C)c1nc(N(C)S(C)(=O)=O)nc(-c2ccc(F)cc2)c1/C=C/[C@@H](O)C[C@@H](O)CC(=O)O` [Rosuvastatin, rosuvastatin], the “increase in maximum concentration” value [1] is given as 10%, the “increase in total exposure” value [1] is given as 41% and the “bioavailability, orally administered” value ([2]; oral administration) is given as “approximately 20%”.
For `CC[C@H](C)[C@H](NC(=O)[C@H](Cc1ccccc1)NC(=O)[C@H](CCC(=O)O)NC(=O)[C@H](CCCCNC(=O)COCCOCCNC(=O)COCCOCCNC(=O)CC[C@H](NC(=O)CCCCCCCCCCCCCCCCC(=O)O)C(=O)O)NC(=O)[C@H](C)NC(=O)[C@H](C)NC(=O)[C@H](CCC(N)=O)NC(=O)CNC(=O)[C@H](CCC(=O)O)NC(=O)[C@H](CC(C)C)NC(=O)[C@H](Cc1ccc(O)cc1)NC(=O)[C@H](CO)NC(=O)[C@H](CO)NC(=O)[C@@H](NC(=O)[C@H](CC(=O)O)NC(=O)[C@H](CO)NC(=O)[C@@H](NC(=O)[C@H](Cc1ccccc1)NC(=O)[C@@H](NC(=O)CNC(=O)[C@H](CCC(=O)O)NC(=O)C(C)(C)NC(=O)[C@@H](N)Cc1cnc[nH]1)[C@@H](C)O)[C@@H](C)O)C(C)C)C(=O)N[C@@H](C)C(=O)N[C@@H](Cc1c[nH]c2ccccc12)C(=O)N[C@@H](CC(C)C)C(=O)N[C@H](C(=O)N[C@@H](CCCNC(=N)N)C(=O)NCC(=O)N[C@@H](CCCNC(=N)N)C(=O)NCC(=O)O)C(C)C` [Semaglutide, semaglutide], the “potential to inhibit or induce CYP enzymes” value (CYP enzymes) is listed as “very low potential”, the “potential to inhibit drug transporters” value (drug transporters) is listed as “very low potential” and the “elimination of intact semaglutide in urine” value ([2]; absorption, metabolism and excretion trial with subcutaneous semaglutide) is listed as 3%.
In the case of `C#C[C@]1(O)CC[C@H]2[C@@H]3CCC4=CC(=O)CC[C@@H]4[C@H]3CC[C@@]21CC` [levonorgestrel], the “increase in AUC” value [3] is given as 20%.
